From patent US20250243171A1, “QUINAZOLINE COMPOUNDS FOR TREATMENT OF DISEASE” (Arthrosi Therapeutics, Inc., priority 2021, published 2025)

Legend:
Assay in all cases: EC50 assay: Ba/F3 stable cell proliferation (CCK-8, 72 h)
Type in all cases: cell-based
Ba/F3 stable cells [1] = target: T1, Ba/F3 stable cells (Homo sapiens, UniProt P00533, DUP767-769, cells depend on it); details: Ba/F3-EGFR V769-D770insASV cells
T1 construct: EC50 Ba/F3-EGFR V769-D770insASV; other: Ba/F3-EGFR V769-D770insASV cells, 72 h, CCK-8
Method in brief: (§1)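 Ba/F3 stable cells were seeded at 4,000 cells/90 μL/well in 96-well plates and held 2 h at 37° C. in 5% CO2, then given 10 μL of serially titrated compound (0.1% DMSO final). After 72 h at 37° C., CCK-8 reagent was added for 4 hours and absorbance read at 450 nm to derive EC50.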

Ba/F3 stable cells [2] = target: T2, Ba/F3 stable cells (Homo sapiens, UniProt P00533, DUP771-773, cells depend on it); details: Ba/F3-EGFR H773-V774insNPH cells
T2 construct: EC50 Ba/F3-EGFR H773-V774insNPH; other: Ba/F3-EGFR H773-V774insNPH cells, 72 h, CCK-8
Method in brief: as §1

Ba/F3 stable cells [3] = target: T3, Ba/F3 stable cells (Homo sapiens, UniProt P00533, T790M/L858R, cells depend on it); details: Ba/F3-EGFR L858R-T790M cells
T3 construct: EC50 Ba/F3-EGFR L858R-T790M; other: Ba/F3-EGFR L858R-T790M cells, 72 h, CCK-8
Method in brief: as §1

Ba/F3 stable cells [4] = target: T4, Ba/F3 stable cells (Homo sapiens, UniProt P00533, DUP768-770, cells depend on it); details: Ba/F3-EGFR D770-N771insSVD cells
T4 construct: EC50 Ba/F3-EGFR D770-N771insSVD; other: Ba/F3-EGFR D770-N771insSVD cells, 72 h, CCK-8
Method in brief: as §1

Ba/F3 stable cells [5] = target: T5, Ba/F3 stable cells (Homo sapiens, UniProt P04626, DUP772-775, cells depend on it); details: Ba/F3-HER2 A775-G776insYVMA cells
T5 construct: EC50 Ba/F3-HER2 A775-G776insYVMA; other: Ba/F3-HER2 A775-G776insYVMA cells, 72 h, CCK-8
Method in brief: as §1

Ba/F3 stable cells [6] = target: T6, Ba/F3 stable cells (Homo sapiens, UniProt P00533, INS763FQEA, cells depend on it); details: Ba/F3-EGFR A763-Y764insFQEA cells
T6 construct: EC50 Ba/F3-EGFR A763-Y764insFQEA; other: Ba/F3-EGFR A763-Y764insFQEA cells, 72 h, CCK-8
Method in brief: as §1

T2 sequence (P00533 with tags, fused parts or gaps DUP771-773): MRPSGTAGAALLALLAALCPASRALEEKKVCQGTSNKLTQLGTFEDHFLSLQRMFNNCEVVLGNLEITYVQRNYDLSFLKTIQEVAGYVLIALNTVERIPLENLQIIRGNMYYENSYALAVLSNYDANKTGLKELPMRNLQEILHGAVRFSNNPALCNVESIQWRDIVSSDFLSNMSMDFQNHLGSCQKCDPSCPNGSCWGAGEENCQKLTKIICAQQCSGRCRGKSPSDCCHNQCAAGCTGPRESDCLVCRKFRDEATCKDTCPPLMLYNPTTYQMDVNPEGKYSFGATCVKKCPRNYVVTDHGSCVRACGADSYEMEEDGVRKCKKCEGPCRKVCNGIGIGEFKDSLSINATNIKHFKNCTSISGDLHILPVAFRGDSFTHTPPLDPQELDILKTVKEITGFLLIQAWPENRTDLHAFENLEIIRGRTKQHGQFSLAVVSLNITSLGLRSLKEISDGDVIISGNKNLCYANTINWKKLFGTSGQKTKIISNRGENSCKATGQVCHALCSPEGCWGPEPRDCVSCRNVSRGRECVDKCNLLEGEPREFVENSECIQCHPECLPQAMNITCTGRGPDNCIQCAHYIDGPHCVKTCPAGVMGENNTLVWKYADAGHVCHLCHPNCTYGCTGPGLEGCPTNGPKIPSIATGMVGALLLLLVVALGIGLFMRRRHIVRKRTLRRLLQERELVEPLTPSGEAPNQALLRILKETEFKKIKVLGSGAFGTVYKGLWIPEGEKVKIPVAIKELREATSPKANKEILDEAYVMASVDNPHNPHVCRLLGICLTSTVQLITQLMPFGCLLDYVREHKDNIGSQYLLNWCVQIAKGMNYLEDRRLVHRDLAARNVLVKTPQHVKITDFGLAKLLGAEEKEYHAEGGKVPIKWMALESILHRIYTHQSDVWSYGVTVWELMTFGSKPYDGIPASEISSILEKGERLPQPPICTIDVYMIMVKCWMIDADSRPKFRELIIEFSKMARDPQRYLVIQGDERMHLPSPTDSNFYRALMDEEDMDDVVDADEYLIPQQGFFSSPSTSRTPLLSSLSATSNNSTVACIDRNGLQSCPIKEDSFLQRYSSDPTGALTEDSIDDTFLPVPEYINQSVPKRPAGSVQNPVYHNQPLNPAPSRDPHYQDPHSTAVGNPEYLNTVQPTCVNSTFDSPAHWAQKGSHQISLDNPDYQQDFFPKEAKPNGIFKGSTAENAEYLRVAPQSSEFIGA
T3 sequence (P00533 whole entry T790M/L858R): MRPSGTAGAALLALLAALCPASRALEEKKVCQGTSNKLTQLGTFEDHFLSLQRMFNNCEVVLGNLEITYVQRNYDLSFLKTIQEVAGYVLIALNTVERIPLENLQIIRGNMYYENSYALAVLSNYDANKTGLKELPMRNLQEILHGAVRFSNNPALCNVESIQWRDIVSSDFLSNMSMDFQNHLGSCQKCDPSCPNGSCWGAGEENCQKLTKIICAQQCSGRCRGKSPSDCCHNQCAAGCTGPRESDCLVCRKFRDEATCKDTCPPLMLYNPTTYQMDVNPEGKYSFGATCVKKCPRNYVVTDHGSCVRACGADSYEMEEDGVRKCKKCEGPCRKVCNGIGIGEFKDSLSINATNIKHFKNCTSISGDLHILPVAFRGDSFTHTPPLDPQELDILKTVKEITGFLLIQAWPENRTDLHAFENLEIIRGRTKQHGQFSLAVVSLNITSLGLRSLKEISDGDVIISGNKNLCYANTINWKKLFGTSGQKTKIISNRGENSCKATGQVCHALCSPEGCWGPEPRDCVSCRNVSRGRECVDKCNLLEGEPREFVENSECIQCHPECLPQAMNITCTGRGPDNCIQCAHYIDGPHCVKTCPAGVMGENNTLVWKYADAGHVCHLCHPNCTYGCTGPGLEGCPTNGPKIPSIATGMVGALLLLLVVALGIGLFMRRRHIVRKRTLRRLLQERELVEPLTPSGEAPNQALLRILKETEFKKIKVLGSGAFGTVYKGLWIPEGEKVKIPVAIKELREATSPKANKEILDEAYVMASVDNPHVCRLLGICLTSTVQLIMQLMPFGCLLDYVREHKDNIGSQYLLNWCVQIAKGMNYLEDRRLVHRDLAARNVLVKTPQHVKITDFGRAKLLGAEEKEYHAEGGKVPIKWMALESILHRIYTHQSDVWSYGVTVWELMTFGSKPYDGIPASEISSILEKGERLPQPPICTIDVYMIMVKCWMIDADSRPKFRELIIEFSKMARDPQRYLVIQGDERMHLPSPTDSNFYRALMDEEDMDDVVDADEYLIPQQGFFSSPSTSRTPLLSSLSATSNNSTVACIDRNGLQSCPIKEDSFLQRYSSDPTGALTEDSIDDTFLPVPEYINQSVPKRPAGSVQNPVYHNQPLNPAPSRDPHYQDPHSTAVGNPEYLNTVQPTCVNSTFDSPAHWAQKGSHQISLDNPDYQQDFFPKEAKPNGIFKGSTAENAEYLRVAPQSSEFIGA
T5 sequence (P04626 with tags, fused parts or gaps DUP772-775): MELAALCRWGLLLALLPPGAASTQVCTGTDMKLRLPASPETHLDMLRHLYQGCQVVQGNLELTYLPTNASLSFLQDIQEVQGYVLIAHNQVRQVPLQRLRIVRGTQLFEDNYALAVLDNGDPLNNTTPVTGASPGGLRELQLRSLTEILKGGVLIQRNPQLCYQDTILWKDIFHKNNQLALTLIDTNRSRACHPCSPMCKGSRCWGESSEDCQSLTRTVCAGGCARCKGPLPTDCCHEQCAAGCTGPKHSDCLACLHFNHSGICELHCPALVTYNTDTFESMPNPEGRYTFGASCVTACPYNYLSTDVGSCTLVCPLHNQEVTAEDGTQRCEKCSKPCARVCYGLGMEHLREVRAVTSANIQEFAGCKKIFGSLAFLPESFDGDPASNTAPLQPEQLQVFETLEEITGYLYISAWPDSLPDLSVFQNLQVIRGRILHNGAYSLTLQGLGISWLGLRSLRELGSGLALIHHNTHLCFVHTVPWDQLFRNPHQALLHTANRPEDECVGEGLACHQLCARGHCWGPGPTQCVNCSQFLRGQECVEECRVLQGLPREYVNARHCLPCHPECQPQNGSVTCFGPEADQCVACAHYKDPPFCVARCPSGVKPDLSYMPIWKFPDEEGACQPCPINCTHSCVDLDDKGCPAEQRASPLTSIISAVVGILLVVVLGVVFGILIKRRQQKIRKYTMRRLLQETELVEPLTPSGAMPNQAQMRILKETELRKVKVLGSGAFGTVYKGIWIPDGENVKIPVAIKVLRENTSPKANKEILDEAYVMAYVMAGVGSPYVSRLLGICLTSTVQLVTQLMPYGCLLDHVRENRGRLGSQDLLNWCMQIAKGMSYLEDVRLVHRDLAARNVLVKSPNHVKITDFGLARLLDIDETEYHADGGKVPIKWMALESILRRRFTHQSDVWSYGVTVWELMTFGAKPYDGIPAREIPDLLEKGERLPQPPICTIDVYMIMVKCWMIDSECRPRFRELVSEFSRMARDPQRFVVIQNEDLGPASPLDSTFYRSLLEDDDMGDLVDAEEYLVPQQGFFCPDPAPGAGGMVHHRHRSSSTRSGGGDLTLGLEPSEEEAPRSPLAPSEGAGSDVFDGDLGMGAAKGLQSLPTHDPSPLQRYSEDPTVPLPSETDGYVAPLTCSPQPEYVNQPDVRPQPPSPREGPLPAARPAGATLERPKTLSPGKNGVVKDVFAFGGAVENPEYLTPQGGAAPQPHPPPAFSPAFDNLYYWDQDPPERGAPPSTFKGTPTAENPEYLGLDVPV
T1 sequence (P00533 with tags, fused parts or gaps DUP767-769): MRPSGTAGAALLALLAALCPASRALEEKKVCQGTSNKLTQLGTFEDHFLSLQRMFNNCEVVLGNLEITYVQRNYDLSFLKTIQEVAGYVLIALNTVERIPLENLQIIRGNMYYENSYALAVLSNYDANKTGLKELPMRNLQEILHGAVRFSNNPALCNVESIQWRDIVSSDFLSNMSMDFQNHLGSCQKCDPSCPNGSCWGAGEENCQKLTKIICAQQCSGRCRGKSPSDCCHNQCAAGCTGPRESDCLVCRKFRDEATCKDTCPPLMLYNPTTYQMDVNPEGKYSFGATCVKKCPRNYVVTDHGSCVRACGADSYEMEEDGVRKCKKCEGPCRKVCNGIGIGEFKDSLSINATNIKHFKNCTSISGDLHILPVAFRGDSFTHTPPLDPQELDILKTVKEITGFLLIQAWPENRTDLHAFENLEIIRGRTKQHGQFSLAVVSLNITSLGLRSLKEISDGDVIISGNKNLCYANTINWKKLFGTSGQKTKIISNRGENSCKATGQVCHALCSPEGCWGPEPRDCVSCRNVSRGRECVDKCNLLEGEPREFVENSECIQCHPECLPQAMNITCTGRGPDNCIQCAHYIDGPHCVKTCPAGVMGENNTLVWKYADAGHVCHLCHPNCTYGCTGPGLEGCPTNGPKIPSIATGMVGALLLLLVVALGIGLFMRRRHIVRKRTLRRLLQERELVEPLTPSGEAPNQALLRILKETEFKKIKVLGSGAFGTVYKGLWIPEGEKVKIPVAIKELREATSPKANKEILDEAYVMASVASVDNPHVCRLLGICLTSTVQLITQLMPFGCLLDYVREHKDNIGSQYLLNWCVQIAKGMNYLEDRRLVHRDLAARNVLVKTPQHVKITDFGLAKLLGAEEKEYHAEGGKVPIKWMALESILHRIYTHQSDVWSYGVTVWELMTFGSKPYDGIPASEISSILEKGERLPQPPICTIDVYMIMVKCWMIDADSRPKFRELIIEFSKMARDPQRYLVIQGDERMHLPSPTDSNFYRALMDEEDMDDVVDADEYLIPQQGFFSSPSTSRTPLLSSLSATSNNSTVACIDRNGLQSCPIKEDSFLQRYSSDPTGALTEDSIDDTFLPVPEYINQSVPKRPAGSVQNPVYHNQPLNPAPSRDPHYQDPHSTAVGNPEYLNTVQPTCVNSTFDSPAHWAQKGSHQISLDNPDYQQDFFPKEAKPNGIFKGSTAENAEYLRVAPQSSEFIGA

EC50 (Ba/F3 stable cells [1]) [nM]	EC50 (Ba/F3 stable cells [2]) [nM]	EC50 (Ba/F3 stable cells [3]) [nM]	EC50 (Ba/F3 stable cells [4]) [nM]	EC50 (Ba/F3 stable cells [5]) [nM]	EC50 (Ba/F3 stable cells [6]) [nM]	SMILES
≤ 200	≤ 200	200 to 1000	200 to 1000	≤ 200	≤ 200	C=CC(=O)NC1CC(Oc2cc3c(Nc4cccc(Cl)c4F)ncnc3cc2OC)C1 (stereo not drawn) [Compound 74, N-(3-((4-((3-chloro-2-fluorophenyl)amino)-7-methoxyquinazolin-6-yl)oxy)cyclobutyl)acrylamide]
200 to 1000	200 to 1000	200 to 1000	> 1000	200 to 1000	≤ 200	C=CC(=O)NC1CC(Oc2cc3c(Nc4ccc(Cl)c(F)c4Cl)ncnc3cc2OC)C1 (stereo not drawn) [Compound 75, N-(3-((4-((2,4-dichloro-3-fluorophenyl)amino)-7-methoxyquinazolin-6-yl)oxy)cyclobutyl)acrylamide]
≤ 200	200 to 1000	> 1000	200 to 1000	200 to 1000	≤ 200	C=CC(=O)NC1CC(Oc2cc3c(Nc4ccc(F)c(Cl)c4Cl)ncnc3cc2OC)C1 (stereo not drawn) [Compound 76, N-(3-((4-((2,3-dichloro-4-fluorophenyl)amino)-7-methoxyquinazolin-6-yl)oxy)cyclobutyl)acrylamide]
200 to 1000	200 to 1000	> 1000	> 1000	200 to 1000	≤ 200	C=CC(=O)N[C@H]1C[C@H](Oc2cc3c(Nc4ccccc4F)ncnc3cc2OC)C1 [Compound 77, N-(3-((4-((2-fluorophenyl)amino)-7-methoxyquinazolin-6-yl)oxy)cyclobutyl)acrylamide]
≤ 200	200 to 1000	> 1000	> 1000	200 to 1000	≤ 200	C=CC(=O)NC1CC(Oc2cc3c(Nc4ccc(Cl)cc4F)ncnc3cc2OC)C1 (stereo not drawn) [Compound 78, N-(3-((4-((4-chloro-2-fluorophenyl)amino)-7-methoxyquinazolin-6-yl)oxy)cyclobutyl)acrylamide]
≤ 200	200 to 1000	> 1000	> 1000	200 to 1000	≤ 200	C=CC(=O)N[C@H]1C[C@H](Oc2cc3c(Nc4ccc(Cl)c(Cl)c4F)ncnc3cc2OC)C1 [Compound 79, N-((1r,3r)-3-((4-((3,4-dichloro-2-fluorophenyl)amino)-7-methoxyquinazolin-6-yl)oxy)cyclobutyl)acrylamide]
> 1000	> 1000	> 1000	> 1000	> 1000	≤ 200	C=CC(=O)NC1CC(Oc2cc3c(Nc4ccc5ccccc5c4)ncnc3cc2OC)C1 (stereo not drawn) [Compound 80, N-(3-((7-methoxy-4-(naphthalen-2-ylamino)quinazolin-6-yl)oxy)cyclobutyl)acrylamide]
≤ 200	200 to 1000	200 to 1000	≤ 200	200 to 1000	≤ 200	C=CC(=O)NC1CC(Oc2cc3c(Nc4cccc5ccccc45)ncnc3cc2OC)C1 (stereo not drawn) [Compound 81, N-(3-((7-methoxy-4-(naphthalen-1-ylamino)quinazolin-6-yl)oxy)cyclobutyl)acrylamide]
≤ 200	200 to 1000	200 to 1000	200 to 1000	200 to 1000	≤ 200	C=CC(=O)N[C@H]1C[C@@H](Oc2cc3c(Nc4ccc(Cl)c(Cl)c4)ncnc3cc2OC)C1 [Compound 82, N-((1s,3s)-3-((4-((3,4-dichlorophenyl)amino)-7-methoxyquinazolin-6-yl)oxy)cyclobutyl)acrylamide]
≤ 200	≤ 200	200 to 1000	200 to 1000	200 to 1000	≤ 200	C=CC(=O)N[C@H]1C[C@@H](Oc2cc3c(Nc4cccc5ccccc45)ncnc3cc2OC)C1 [Compound 83, N-((1s,3s)-3-((7-methoxy-4-(naphthalen-1-ylamino)quinazolin-6-yl)oxy)cyclobutyl)acrylamide]
200 to 1000	> 1000	> 1000	> 1000	> 1000	≤ 200	C=CC(=O)NC1CC(Oc2cc3c(NCc4ccc(F)cc4)ncnc3cc2OC)C1 (stereo not drawn) [Compound 84, N-(3-((4-((4-fluorobenzyl)amino)-7-methoxyquinazolin-6-yl)oxy)cyclobutyl)acrylamide]
200 to 1000	> 1000	> 1000	> 1000	> 1000	≤ 200	C=CC(=O)NC1CC(Oc2cc3c(Nc4ccc(F)c(Cl)c4)ncnc3cc2OC)C1 (stereo not drawn) [Compound 85, N-(3-((4-((3-chloro-4-fluorophenyl)amino)-7-methoxyquinazolin-6-yl)oxy)cyclobutyl)acrylamide]
> 1000	> 1000	> 1000	> 1000	> 1000	200 to 1000	C=CC(=O)N[C@H]1C[C@H](Oc2cc3c(Nc4ccc(C#N)c(Cl)c4)ncnc3cc2OC)C1 [Compound 86, N-(3-((4-((3-chloro-4-cyanophenyl)amino)-7-methoxyquinazolin-6-yl)oxy)cyclobutyl)acrylamide]
> 1000	> 1000	> 1000	> 1000	> 1000	200 to 1000	C=CC(=O)NC1CC(Oc2cc3c(Nc4ccc(F)c(C#N)c4)ncnc3cc2OC)C1 (stereo not drawn) [Compound 87, N-(3-((4-((3-cyano-4-fluorophenyl)amino)-7-methoxyquinazolin-6-yl)oxy)cyclobutyl)acrylamide]
> 1000	> 1000	> 1000	> 1000	> 1000	200 to 1000	C=CC(=O)NC1CC(Oc2cc3c(Nc4cccc5c4CCC5)ncnc3cc2OC)C1 (stereo not drawn) [Compound 88, N-(3-((4-((2,3-dihydro-1H-inden-4-yl)amino)-7-methoxyquinazolin-6-yl)oxy)cyclobutyl)acrylamide]
> 1000	> 1000	> 1000	> 1000	> 1000	200 to 1000	C=CC(=O)NC1CC(Oc2cc3c(Nc4cccc5c4CCCC5)ncnc3cc2OC)C1 (stereo not drawn) [Compound 89, N-(3-((7-methoxy-4-((5,6,7,8-tetrahydronaphthalen-1-yl)amino)quinazolin-6-yl)oxy)cyclobutyl)acrylamide]
≤ 200	200 to 1000	> 1000	> 1000	> 1000	≤ 200	C=CC(=O)N[C@H]1CC[C@@H](Oc2cc3c(Nc4ccc(Cl)c(Cl)c4F)ncnc3cc2OC)CC1 [Compound 90, N-((1s,4s)-4-((4-((3,4-dichloro-2-fluorophenyl)amino)-7-methoxyquinazolin-6-yl)oxy)cyclohexyl)acrylamide]
200 to 1000	200 to 1000	> 1000	200 to 1000	200 to 1000	≤ 200	C=CC(=O)N[C@H]1CC[C@H](Oc2cc3c(Nc4ccc(Cl)c(Cl)c4F)ncnc3cc2OC)CC1 [Compound 91, N-((1r,4r)-4-((4-((3,4-dichloro-2-fluorophenyl)amino)-7-methoxyquinazolin-6-yl)oxy)cyclohexyl)acrylamide]
≤ 200	≤ 200	200 to 1000	200 to 1000	≤ 200	≤ 200	C=CC(=O)NC1CC(Nc2cc3c(Nc4ccc(Cl)c(Cl)c4F)ncnc3cc2OC)C1 (stereo not drawn) [Compound 92, N-(3-((4-((3,4-dichloro-2-fluorophenyl)amino)-7-methoxyquinazolin-6-yl)amino)cyclobutyl)acrylamide]
> 1000	> 1000	> 1000	> 1000	> 1000	≤ 200	C=CC(=O)N1CCC(Oc2cc3c(C(=O)NCc4ccc(F)cc4)ncnc3cc2OC)CC1 [Compound 94, 6-((1-acryloylpiperidin-4-yl)oxy)-N-(4-fluorobenzyl)-7-methoxyquinazoline-4-carboxamide]
> 1000	> 1000	> 1000	> 1000	> 1000	> 1000	C=CC(=O)N1CCC(Oc2cc3c(C(=O)N[C@H](C)c4ccc(F)cc4)ncnc3cc2OC)CC1 [Compound 95, (R)-6-((1-acryloylpiperidin-4-yl)oxy)-N-(1-(4-fluorophenyl)ethyl)-7-methoxyquinazoline-4-carboxamide]
